We go through 17 molecules from patent EP1832585A1, “Thiazole-piperidine derivatives for treatment of hyperproliferative diseases” (Oridis Biomed Forschungs- und Entwicklungs GmbH, priority 2006, dated 2007).

Structures are written as SMILES. Bounds are passed on as bounds.

Holding throughout (format): cell-based
The subject of experiment [1] is Hep3B. The experiment can be described thus: Proliferation assay (CellTiter-Glo luminescent cell viability assay), Hep3B. The following applies: human hepatoma Hep3B; 48 hours incubation; 10% (v/v) FCS; read-out: EC50, inhibition of Hep3B proliferation. As for the experimental part:
(§1) The assay is based on the relation that the ATP content is directly proportional to the number of cells present in the culture. The CellTiter-Glo® assay is performed to measure the proliferation rate of human hepatoma (HuH7, PLC/PRF/5, Hep3B, SK-Hep1), human hepatoblastoma (HepG2), human colon carcinoma (CX-2), human breast cancer (SK-Br-3), human […] (HeLa) and human pancreatic carcinoma (DAN-G) cell lines (see Example 2). […] Further, HepG2 and Hep3B are inhibited with an EC50 of 0.9 and 0.3 µM, respectively.
(§2) To determine the inhibition of cell proliferation a luminescent cell viability assay (CellTiter-Glo®; Promega, Madison, USA) is implemented. The assay is based on the relation that the ATP content is directly proportional to the number of cells present in the culture, see Technical Bulletin No. 228 "CellTiter-Glo® Luminescent Cell viability Assay", Revised 2/04. Promeg, Madison, USA. […] Triplicates are measured for each concentration. […] The final cell number is determined after 48 hour of incubation. […] After subsequent incubation for additional 10 minutes at room temperature the luminescence signal was recorded within 30 min. EC50 values are calculated using the four-parametric Hill equation (Sigma Plot). […]
(In ATP-based viability assays light output follows the ATP content of the culture.)

Experiment [2] has as its system HuH7. Description: Proliferation assay (CellTiter-Glo luminescent cell viability assay), HuH7. Particulars: Huh-7; human hepatoma HuH7; 48 hours incubation; 10% (v/v) FCS; compounds 0 to 20 µM; read-out: EC50 (effective concentration reducing cell proliferation by 50%), inhibition of HuH7 proliferation. As for the experimental part:
as §1
To determine the inhibition of cell proliferation a luminescent cell viability assay (CellTiter-Glo®; Promega, Madison, USA) is implemented. The assay is based on the relation that the ATP content is directly proportional to the number of cells present in the culture, see Technical Bulletin No. 228 "CellTiter-Glo® Luminescent Cell viability Assay", Revised 2/04. Promeg, Madison, USA. The CellTiter-Glo® assay is performed to measure the proliferation rate of human hepatoma (HuH7, PLC/PRF/5, Hep3B, SK-Hep1), human hepatoblastoma (HepG2), human colon carcinoma (CX-2), human breast cancer (SK-Br-3), human […] (HeLa) and human pancreatic carcinoma (DAN-G) cell lines. 3000 viable cells (viability ≥ 90%) are seeded in opaque-walled 96-well plates and incubated for 24 hours in DMEM, supplemented with 2 mM glutamin. Cell proliferation is stimulated by addition of FCS to a final concentration of 10% (v/v). Simultaneously the compounds I to XVII (see Table 1 A to 1D and 2) are added in a concentration range of 0 to 20 µM. Triplicates are measured for each concentration. Cells and compounds (see Table 1 A to 1D, and 2) are incubated for a period of 48 hours in a volume of 140 µl cell culture medium (10% (v/v) FCS, 2 mM Glutamin, DMEM). The compounds are solved in 60% to 100% (v/v) DMSO at a concentration of 2 mM. The final DMSO concentration under assay conditions never exceeded 1% (v/v). Throughout the assay cells are kept in a humidified incubator (95% rH) at 37°C and 5% CO2. The final cell number is determined after 48 hour of incubation. Therefore 140 µl CellTiter-Glo®Reagent is added in each well. The contents are mixed on an orbital shaker for 2 minutes at room temperature. After subsequent incubation for additional 10 minutes at room temperature the luminescence signal was recorded within 30 min. EC50 values are calculated using the four-parametric Hill equation (Sigma Plot).
Control values are: (1) 10% (v/v) FCS, 2 mM Glutamin, DMEM -> maximum cell number and (2) 2 mM Glutamin, DMEM -> initial cell number.

For experiment [3], the system named is Sk-Br-3. The experiment can be described thus: Proliferation assay (CellTiter-Glo luminescent cell viability assay), SK-Br-3. The following applies: human breast cancer SK-Br-3; 48 hours incubation; 10% (v/v) FCS; read-out: EC50 (effective concentration reducing cell proliferation by 50%), inhibition of SK-Br-3 proliferation. The procedure: as §1, §2
Experiment [4] relates to DAN-G. The experiment can be described thus: Proliferation assay (CellTiter-Glo luminescent cell viability assay), DAN-G. The following applies: human pancreatic carcinoma DAN-G; 48 hours incubation; 10% (v/v) FCS; read-out: EC50 (effective concentration reducing cell proliferation by 50%), inhibition of DAN-G proliferation. The procedure: as §1, §2
Experiment [5] relates to HepG2. Description: Proliferation assay (CellTiter-Glo luminescent cell viability assay), HepG2. Particulars: human hepatoblastoma HepG2; 48 hours incubation; 10% (v/v) FCS; read-out: EC50, inhibition of HepG2 proliferation. As for the experimental part:
as §1, §2

The test system of experiment [6] is CX-2. Description: Proliferation assay (CellTiter-Glo luminescent cell viability assay), CX-2. The following applies: human colon carcinoma CX-2; 48 hours incubation; 10% (v/v) FCS; read-out: EC50 (effective concentration reducing cell proliferation by 50%), inhibition of CX-2 proliferation. As for the experimental part: as §1, §2
For experiment [7], the system named is HeLa. The experiment can be described thus: Proliferation assay (CellTiter-Glo luminescent cell viability assay), HeLa. Particulars: HeLa (printed as human ovarian carcinoma); 48 hours incubation; 10% (v/v) FCS; read-out: EC50 (effective concentration reducing cell proliferation by 50%), inhibition of HeLa proliferation. The procedure: as §1, §2

Take `O=C(/C=C/c1ccc2c(c1)OCO2)N1CCC(c2nc(-c3ccc4c(c3)OCCO4)cs2)CC1` [Compound I, E-3-{4-[4-(3,4-ethylendioxphenyl)-thiazol-2-yl]-piperidin-1-yl}-1-(3,4-methylendioxyphenyl)-3-oxo-prop-1-ene]: the EC50 turned out to be 0.3 µM in experiment [1]; 0.33 µM in experiment [2]; 10.8 µM in experiment [3]; 4.69 µM in experiment [4]; 0.9 µM in experiment [5]; 19.1 µM in experiment [6]. The EC50 in experiment [7] was found to be 14.8 µM.
Turning to `CCOC(=O)c1cc(-c2csc(C3CCN(C(=O)C(Cc4ccccc4F)NC(C)=O)CC3)n2)on1` (stereo not drawn) [III], the EC50 in experiment [2] came to 1.61 µM.
Take `CCOC(=O)c1cc(-c2csc(C3CCN(C(=O)/C(C)=C/c4cc(OC)c(OC)cc4OC)CC3)n2)on1` [II]: the EC50 in experiment [2] came out at 12.4 µM.
On to `COC(=O)C(NC(=O)N1CCC(c2nc(-c3ccc4c(c3)OCCO4)cs2)CC1)C(C)C` (stereo not drawn) [IV], for which the EC50 in experiment [2] is 5.02 µM.
Regarding `O=C(C1COc2ccccc2O1)N1CCC(c2nc(-c3ccc4c(c3)OCCO4)cs2)CC1` (stereo not drawn) [IX], the EC50 in experiment [2] is 3.93 µM.
Same read-out and setting: the same measure for `CCOC(=O)CNC(=O)N1CCC(c2nc(-c3cccc(Br)c3)cs2)CC1` [VIII]: 1.89 µM; for `O=C(c1cccnc1OCC(F)(F)F)N1CCC(c2nc(-c3ccc4c(c3)OCCO4)cs2)CC1` [VII]: 6.2 µM; for `CCOC(=O)c1cc(-c2csc(C3CCN(C(=O)/C=C/c4ccc5c(c4)OCO5)CC3)n2)on1` [VI]: 20.7 µM.
As for `Cc1nn(C)c(Cl)c1/C=C/C(=O)N1CCC(c2nc(-c3ccc4c(c3)OCCO4)cs2)CC1` [V], the EC50 is 10.7 µM in experiment [2]; greater than 20 µM in experiment [3]; 11.1 µM in experiment [4]; greater than 20 µM in experiment [6]; 18.7 µM in experiment [7].
`O=C(c1csc(-c2cnccn2)n1)N1CCC(c2nc(-c3ccc4c(c3)OCCO4)cs2)CC1` [XIII]: the EC50 in experiment [2] is 6 µM.
For `CCN(CC)c1ccc(-c2csc(C3CCN(Cc4ccc(N(CCC#N)CCC#N)cc4)CC3)n2)cc1` [XII], the EC50 in experiment [2] stood at 5.76 µM.
Same read-out and setting: then `O=C1CC(C(=O)N2CCC(c3nc(-c4ccc5c(c4)OCCO5)cs3)CC2)CN1Cc1cccs1` (stereo not drawn) [XIV], with 29 µM.
As for `O=C(c1ccccc1C[S+]([O-])c1ccccc1)N1CCC(c2nc(-c3ccc4c(c3)OCCO4)cs2)CC1` (stereo not drawn) [XI], in experiment [2], the EC50 is 3.35 µM.
Same read-out and setting: then `CCOC(=O)/C=C/C(=O)N1CCC(c2nc(-c3ccc(Cl)c([N+](=O)[O-])c3)cs2)CC1` [XVII], with 0.63 µM.
The same measure, in the same setting: the same measure for `O=C(C1N=Nc2ccccc21)N1CCC(c2nc(-c3ccc4c(c3)OCCO4)cs2)CC1` (stereo not drawn) [XVI]: 24.9 µM; for `Cc1cc(Cl)ccc1NC(=O)COCC(=O)N1CCC(c2nc(-c3ccc4c(c3)OCCO4)cs2)CC1` [XV]: 4.94 µM; for `O=C(CCCc1nc2ccccc2[nH]1)N1CCC(c2nc(-c3cccc(Br)c3)cs2)CC1` [X]: 1.93 µM.
